Experimental data published in US8188326B2, “Process for producing adamantane” (Mitsubishi Gas Chemical Company, Inc., priority 2008, dated 2012).

Type: physicochemical
Procedure: FIG. 1 is a graph showing the measurement results of the solubility of adamantane (hereinafter, occasionally referred to simply as “ADM”) in TCD (mol %=ADM mol/(exo-TCD+endo-TCD+ADM)mol×100).
Specifically, at 80° C., with respect to the purity of 80% of mixed TCD containing exo-TCD of 99% and endo-TCD of 1% (hereinafter, referred to simply as “exo-TCD (99)”), the total ADM solubility is 20 mol %. […] It is preferable to control the yield (generation amount) of adamantane to be equal to or less than such a level of ADM solubility.

total ADM solubility of adamantane with respect to TCD: 12.3 mol %
Structure (SMILES): C1C2CC3CC1CC(C2)C3 [adamantane, tricyclo[3.3.1.1^3,7]decane]
